The values that follow come from publication PMC9078933 (2018).

For this assay, the system named is ATB1 (DNA, aptamer) ATATCTTTTCCTACTCATCTTTGAATAACTACCGGGCATTACTTTCTGGCCTCCCTGCCTCCTAAATCACCAATTAATTCGCGGCCCCCCG
In words: fluorescence recovery, aptamer-QD on graphene oxide. The following applies: phosphate buffer pH 7.2, 0.5% BSA, room temperature; tested concentration not stated.

Each structure is given as a SMILES string.

Take `C[C@@H]1Cc2c(Cl)cc(C(=O)N[C@@H](Cc3ccccc3)C(=O)O)c(O)c2C(=O)O1`: the binding result is listed as “no”.
